Data published in the supplement of paper PMC10307832.

How the values were obtained:
Experiment in all cases: relative viability (nuclei count vs DMSO), 5 days (fraction); higher = more cells survive
[1] = test system: EMC-BAC-2
In short: (§1)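 Lung cancer cell lines, seeded in 1536-well plates, were treated the following day by pin tool with a single drug or with five library-drug doses (not always all listed) in √10 steps on top of a fixed anchor-drug dose. Cells were fixed and nuclei stained in one step after 5 days, and nuclei were counted. Relative viability is the nuclei count for treated wells divided by that for vehicle wells, reported as medians of duplicate plates.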

[2] = test system: CAL-12T
In short: as §1

[3] = test system: HARA
In short: as §1

[4] = test system: NCI-H2009
In short: as §1

[5] = test system: HCC-366
In short: as §1

[6] = test system: NCI-H1437
In short: as §1

[7] = test system: NCI-H460
In short: as §1

[8] = test system: HOP-62
In short: as §1

[9] = test system: NCI-H23
In short: as §1

[10] = test system: NCI-H2228
In short: as §1

[11] = test system: LCLC-103H
In short: as §1

[12] = test system: NCI-H1755
In short: as §1

[13] = test system: NCI-H1395
In short: as §1

[14] = test system: NCI-H1792
In short: as §1

[15] = test system: COR-L 105
In short: as §1

[16] = test system: NCI-H727
In short: as §1

[17] = test system: SK-LU-1
In short: as §1

[18] = test system: HCC-827
In short: as §1

[19] = test system: A-427
In short: as §1

[20] = test system: NCI-H1915
In short: as §1

[21] = test system: SW 1573
In short: as §1

Question: Which results are given for `O=c1cc(N2CCOCC2)oc2c(-c3cccc4c3sc3ccccc34)cccc12` + C[C@]1(O)C[C@@H](c2nc(-c3ccc4ccc(-c5ccccc5)nc4c3)c3c(N)nccn32)C1 [Linsitinib] (partner 1 µM)?
Answer: relative viability ([1]; first compound 0.01 µM): 0.822; relative viability ([1]; first compound 0.03162 µM): 0.867; relative viability ([1]; first compound 0.1 µM): 0.813; relative viability ([1]; first compound 0.3162 µM): 0.773; relative viability ([1]; first compound 1 µM): 0.806; relative viability ([2]; first compound 0.01 µM): 0.851; relative viability ([2]; first compound 0.03162 µM): 0.809; relative viability ([2]; first compound 0.1 µM): 0.842; relative viability ([2]; first compound 0.3162 µM): 0.873; relative viability ([2]; first compound 1 µM): 0.879; relative viability ([3]; first compound 0.01 µM): 0.996; relative viability ([3]; first compound 0.03162 µM): 0.933; relative viability ([3]; first compound 0.1 µM): 1.03; relative viability ([3]; first compound 0.3162 µM): 1.17; relative viability ([3]; first compound 1 µM): 0.926; relative viability ([4]; first compound 0.01 µM): 1.16; relative viability ([4]; first compound 0.03162 µM): 1.17; relative viability ([4]; first compound 0.1 µM): 1.19; relative viability ([4]; first compound 0.3162 µM): 1.17; relative viability ([4]; first compound 1 µM): 1.05; relative viability ([5]; first compound 0.01 µM): 0.671; relative viability ([5]; first compound 0.03162 µM): 0.656; relative viability ([5]; first compound 0.1 µM): 0.797; relative viability ([5]; first compound 0.3162 µM): 0.662; relative viability ([5]; first compound 1 µM): 0.625; relative viability ([6]; first compound 0.01 µM): 1.01; relative viability ([6]; first compound 0.03162 µM): 1.11; relative viability ([6]; first compound 0.1 µM): 1.09; relative viability ([6]; first compound 0.3162 µM): 1; relative viability ([6]; first compound 1 µM): 0.979; relative viability ([7]; first compound 0.01 µM): 0.764; relative viability ([7]; first compound 0.03162 µM): 0.708; relative viability ([7]; first compound 0.1 µM): 0.739; relative viability ([7]; first compound 0.3162 µM): 0.822; relative viability ([7]; first compound 1 µM): 0.78; relative viability ([8]; first compound 0.01 µM): 0.991; relative viability ([8]; first compound 0.03162 µM): 1.12; relative viability ([8]; first compound 0.1 µM): 0.909; relative viability ([8]; first compound 0.3162 µM): 0.933; relative viability ([8]; first compound 1 µM): 0.989; relative viability ([9]; first compound 0.01 µM): 0.623; relative viability ([9]; first compound 0.03162 µM): 0.641; relative viability ([9]; first compound 0.3162 µM): 0.663; relative viability ([9]; first compound 1 µM): 0.476; relative viability ([10]; first compound 0.03162 µM): 0.571; relative viability ([10]; first compound 0.1 µM): 0.539; relative viability ([10]; first compound 0.3162 µM): 0.904; relative viability ([10]; first compound 1 µM): 0.74; relative viability ([11]; first compound 0.01 µM): 1.09; relative viability ([11]; first compound 0.03162 µM): 1.04; relative viability ([11]; first compound 0.1 µM): 1.03; relative viability ([11]; first compound 0.3162 µM): 1.08; relative viability ([11]; first compound 1 µM): 0.978; relative viability ([12]; first compound 0.01 µM): 1.04; relative viability ([12]; first compound 0.03162 µM): 0.98; relative viability ([12]; first compound 0.1 µM): 1.03; relative viability ([12]; first compound 0.3162 µM): 1.03; relative viability ([12]; first compound 1 µM): 1.01; relative viability ([13]; first compound 0.01 µM): 1.21; relative viability ([13]; first compound 0.03162 µM): 1.11; relative viability ([13]; first compound 0.1 µM): 1.03; relative viability ([13]; first compound 0.3162 µM): 1.12; relative viability ([13]; first compound 1 µM): 1.2; relative viability ([14]; first compound 0.01 µM): 0.514; relative viability ([14]; first compound 0.03162 µM): 0.513; relative viability ([14]; first compound 0.1 µM): 0.564; relative viability ([14]; first compound 0.3162 µM): 0.502; relative viability ([14]; first compound 1 µM): 0.574; relative viability ([15]; first compound 0.01 µM): 0.858; relative viability ([15]; first compound 0.03162 µM): 0.792; relative viability ([15]; first compound 0.1 µM): 0.851; relative viability ([15]; first compound 0.3162 µM): 0.773; relative viability ([15]; first compound 1 µM): 0.895; relative viability ([16]; first compound 0.01 µM): 0.29; relative viability ([16]; first compound 0.03162 µM): 0.238; relative viability ([16]; first compound 0.1 µM): 0.243; relative viability ([16]; first compound 0.3162 µM): 0.227; relative viability ([16]; first compound 1 µM): 0.283; relative viability ([17]; first compound 0.03162 µM): 1.25; relative viability ([17]; first compound 0.1 µM): 1.12; relative viability ([17]; first compound 0.3162 µM): 1.19; relative viability ([17]; first compound 1 µM): 0.969; relative viability ([18]; first compound 0.01 µM): 0.906; relative viability ([18]; first compound 0.03162 µM): 0.977; relative viability ([18]; first compound 0.1 µM): 0.941; relative viability ([18]; first compound 0.3162 µM): 0.941; relative viability ([18]; first compound 1 µM): 0.891; relative viability ([19]; first compound 0.01 µM): 1.13; relative viability ([19]; first compound 0.03162 µM): 1.12; relative viability ([19]; first compound 0.1 µM): 1.23; relative viability ([19]; first compound 0.3162 µM): 1.12; relative viability ([19]; first compound 1 µM): 1.11; relative viability ([20]; first compound 0.01 µM): 1.04; relative viability ([20]; first compound 0.03162 µM): 1.15; relative viability ([20]; first compound 0.1 µM): 0.636; relative viability ([20]; first compound 0.3162 µM): 1.1; relative viability ([20]; first compound 1 µM): 1.08; relative viability ([21]; first compound 0.01 µM): 0.955; relative viability ([21]; first compound 0.03162 µM): 0.832; relative viability ([21]; first compound 0.1 µM): 0.746; relative viability ([21]; first compound 0.3162 µM): 0.813; relative viability ([21]; first compound 1 µM): 0.653
